Source: patent US20240010726A1, “LFA-1 SIGNALLING MEDIATOR FOR USE IN CANCER THERAPY” (Universität Basel, priority 2020, published 2024)

Tests used:
human EM CD8 T cells = assay: Metabolic flux analysis, glycolytic switch of EM CD8 T cells; format: cell-based
Experimental: FIG. 2: Extracellular magnesium promotes memory-specific activation via LFA-1. Glycolytic switch of human EM CD8 T cells (a) and naïve CD8 T cells (b) subsets upon injection of anti-CD3 Ab only, or anti-CD3 and anti-CD28 Ab, was assessed by metabolic flux analysis in medium containing either 1.2 mM Mg^2+, 0 mM Mg^2+, or medium which was reconstituted from 0 mM to 1.2 mM Mg^2+ immediately prior to activation (0→1.2 mM Mg^2+). (a) Results for human effector memory (EM) and (b) for human naïve CD8 T cells. Glycolytic switch was quantified by subtracting […] measurements. (c) Flow cytometric analysis of surface activation markers on human EM CD8 T cells 24 hours after activation by plate-bound anti-CD3 Ab and soluble anti-CD28 Ab, in 1.2 mM and 0 mM Mg^2+ media, respectively. (d) Abundance of inflammatory cytokines in corresponding EM CD8 T cell culture supernatants, determined by CBA. (e) CD11a (LFA-1) surface expression on human naïve and EM CD8 T cells as well PHA T cell blasts. Flow cytometry-based assessment of total LFA-1 expression assessed by mAb TS2/4 (f), closed conformation of αL by mAb HI111 (g), extended conformation of LFA-1 by mAb Kim127 (h), open head-piece conformation of LFA-1 by mAb m24 (i), phosphorylation of focal adhesion kinase (FAK) […] as well TNF expression (k)±TCR-induced activation in different extracellular Mg^2+ concentrations. (l) Flow cytometry-based assessment of LFA-1 with open-head piece conformation on human EM and naïve CD8 T cells using the open head-piece reporter mAb m24. (m) Assessment of glycolytic switch of EM CD8 T cells. (n) Assessment of glycolytic switch of naïve CD8 T cells. […] FIG. 4: […] Pooled results from n=6 healthy donors from 3 independent experiments. (b) CD69 expression of PHA T cell blasts upon activation with indicated concentrations of plate-bound anti-CD3 mAb in ±Mg^2+ containing medium. […] Cytotoxicity was quantified after adding luciferin to medium and measuring luminescent signal intensity. […] Cytotoxicity was quantified after adding luciferin to medium and measuring luminescent signal intensity. […]

[1] = test system: WT and LFA-1^−/− Jurkat T cells; assay: Calcium flux assay in WT and LFA-1−/− Jurkat T cells; format: cell-based, human
Experimental: FIG. 3: Magnesium regulates LFA-1 mediated T cell activation and cytotoxicity as well BiTE- and CAR T-cell functionality. (a) Glycolytic switch of murine WT and LFA-1^−/− CTLs upon injection of anti-CD3/28 Ab in medium containing 1.2 mM Mg^2+ and 0 mM Mg^2+, presented as quantification of summarized data with n=4 mice. (b) Calcium flux in WT and LFA-1^−/− Jurkat T cells stimulated with anti-CD3 Ab in 1.2 mM and 0 mM Mg^2+ medium, respectively. Cells were loaded with Fluo4, and signal intensity as recorded by plate reader, was normalized to unstimulated baseline values. […] Quantified results of n=3 mice with 3 technical replicates each. […] The effector to target cell ratio was 3:1. Results are quantified of n=3 mice with 3 technical replicates each. (e) Representative CD11a (LFA-1) surface expression on human naïve and EM CD8 T cells, PHA T cell blasts and REP T cells, assessed by flow cytometry. […] The effector to target cell ratio was 1:1. Data is presented as quantified results of n=5 healthy donors (f, g, h), n=3 healthy donors with 2 technical replicates each or n=1 healthy donor with 4 technical replicates (j). […] The effector to target cell ratio was 1:1. Data is presented as quantified results of n=1 healthy donor with 4 technical replicates. […] (n) Representative histogram of CD11a expression on PHA-blasts, untransduced T cells as well anti-CD19 expressing CAR T cells. […] Pooled results of n=6 from 2 independent experiments are shown. (p) Abundance of IFNγ in cell culture supernatants corresponding to the conditions depicted in (o) at 24 hours was determined by ELISA (n=8, 3 independent experiments). (q) Tumor growth curves of mice placed on either Mg^2+-depleted diet or respective control diet and treated with either anti-PSMA CAR T cells, untransduced T cells or saline solution. Representative of n=2 independent experiments with n=6 mice per group. Jurkat T cells were loaded with Fluo4 (Invitrogen) at a final concentration of 2 μM in Mg^2+ free self-made medium for 30 min at 37° C. […] Fluorescence intensity over time was measure with a Tecan Spark M10 plate reader. […]

[2] = anti-CD3 Ab, 0 mM vs 1.2 mM Mg^2+

For `[Mg+2]` [Mg^2+, Magnesium], which “Glycolytic switch of EM CD8^+ T cells upon supra-physiologic activation” value (human EM CD8 T cells; anti-CD3/anti-CD28 Ab plus secondary cross-linking Ab, 0 mM, 1.2 mM, 0→1.2 mM Mg^2+) is on record?
Its value is “lost”.

What about the “Glycolytic switch (ECAR) of EM CD8 T cells” value (human EM CD8 T cells; anti-CD3 or anti-CD3/anti-CD28 Ab, 0 mM vs 1.2 mM Mg^2+) of the same compound?
The value was “blunted”.

What about the “Glycolytic switch (ECAR) of EM CD8 T cells after Mg^2+ add-back” value (human EM CD8 T cells; medium reconstituted 0→1.2 mM Mg^2+ immediately prior to activation) of the same compound?
The value was “fully revertible”.

What about the “Ca^2+ influx in LFA-1^−/− Jurkat T cells” value [1, 2] of the same compound?
The value was “independent from extracellular Mg^2+ concentrations”.

What about the “Ca^2+ influx in WT Jurkat T cells” value [1, 2] of the same compound?
The value was “decreased Ca^2+ influx”.

And the “Prolonged, sustained Ca^2+ influx” value ([1]; extracellular Mg^2+ depletion)?
Its value is “absence of prolonged, sustained Ca^2+ influx”.
